Values joined by “and” are separate entries in the source; they are usually repeats but may differ in a detail not shown here. Equal entries are not always repeated.
Tests used:
[1] = test system: Mtb; experiment: Mouse Mtb infection, C3HeB/FeJ model, oral C6; type: in vivo, C3HeB/FeJ mice; details: for CFU/ml: individual values
Protocol: C3HeB/FeJ wild-type mice (The Jackson Laboratory) were infected intranasally with 10^3 CFUs of Mtb (35 μl), under light anesthesia with 2% isoflurane. […] The next day, the suspension was homogenized by bead beating with 5 mm steel beads in a TOMY microtube mixer (2 × 20 seconds) and stored at 4°C until use. […] Administration began at 2 or 6 weeks post-infection as indicated. At time of sacrifice, the left lobe and accessory right lobe of the lung were homogenized in PBS + 0.05% Tween 80 and serial dilutions plated on 7H10 agar plates with 100 μg/ml cycloheximide for bacterial load determination. The remaining 3 right lobes were fixed in 4% PFA in PBS. One lobe was used for histological analysis by standard hematoxylin and eosin (H&E) staining (Tufts Comparative Pathology Services). A Nikon Eclipse E400 with a SPOT insight color digital camera was used to image the histology samples.

[2] = test system: Mtb; experiment: Mtb growth assay in cholesterol medium (OD600); details: for OD600: Fig. 2G
Description: Bacterial growth was tracked by measuring OD600 every 3 days for 12 days. […] Bacterial growth was tracked by measurement of OD600 every 3 days over 12 days.

[3] = test system: macrophage phagosomal [Cl−] in BMDMs; experiment: Phagosomal maturation assay, BAC/AF594 beads (Cl− readout); type: cell-based, mouse
Protocol: Carboxyfluorescein (pH readout), DQ-BSA/Alexa Fluor 594 (AF594) (proteolysis readout), and BAC/AF594 (Cl^− readout) beads were generated essentially as previously described, except that 10,10′-Bis[3-carboxylpropyl]-9,9′-biacridinium dinitrate di-NHS ester (BAC-SE) was purchased from emp Biotech LLC. BMDMs were isolated from C57BL/6J mice (The Jackson Laboratory) and maintained as described above. […] Assay buffer consisted of PBS (pH 7.2), supplemented with 5% FBS, 5 mM dextrose, 1 mM CaCl2, 2.7 mM KCl, and 0.5 mM MgCl2 in the case of assays with the carboxyfluorescein or DQ-BSA/AF594 beads. For assays with the BAC/AF594 beads, assay buffer consisted of PBS (pH 7.2), supplemented with 5% FBS, 5 mM dextrose, 1 mM calcium acetate, 1.35 mM K2SO4, and 0.5 mM MgSO4 [9]. Sensor beads at approximately 2 to 5 beads/macrophage in appropriate assay buffer were finally added, with data acquisition on a Biotek Synergy H1 microplate reader with bottom read signal detection started within 2 to 3 minutes of bead addition. Excitation/emission wavelengths were 450 nm/520 nm and 490 nm/520 nm for carboxyfluorescein, 490 nm/520 nm for DQ-BSA, 365 nm/505 nm for BAC, and 590 nm/617 nm for AF594. Each experiment was run with a total of 3 to 5 replicate wells/condition, with temperature maintained at 37°C throughout the assay. Wells were read every 2 minutes for 2 hours for the carboxyfluorescein bead assays, every 2 minoutes for 4 hours for the DQ-BSA/AF594 bead assays, and every 1 minute for 2 hours for the BAC/AF594 bead assays. Analyses of the results were performed as previously described.

[4] = Human liver microsomal stability; type: in vitro ADME; details: human liver microsomes; read-out: half-life (t1/2) in human liver microsomes

## CCSc1ncc(CN2CCN(c3nc4ccccc4o3)CC2)cn1 [C6, 2-(4-((2-(ethylthio)pyrimidin-5-yl)methyl)piperazin-1-yl)benzo[d]oxazole]
[1]; 250 mg/kg oral gavage 5 times a week for 2 weeks, started 2 weeks post-infection
  Lung bacterial load, short-term infection model: significantly inhibited Mtb growth
[1]; 250 mg/kg oral gavage for 2 or 4 weeks, started 6 weeks post-infection
  Lung bacterial load, longer-term infection model: significant decrease in bacterial load
[1]; 250 mg/kg, 2-week treatment from 2 weeks post-infection
  Lung histology, short-term infection model: less cellular infiltration
[1]; 250 mg/kg, 2 or 4 weeks treatment from 6 weeks post-infection
  Lung histopathology, longer-term infection model: improved histopathology
[1]; Fig. 4A, 4 weeks (pre-treatment 2 weeks)
  CFU/ml: 5260000 CFU/ml and 1940000 CFU/ml and 7340000 CFU/ml and 338000 CFU/ml and 3180000 CFU/ml and 1920000 CFU/ml and 1820000 CFU/ml and 13560000 CFU/ml
[1]; Fig. 4C, 8 weeks (pre-treatment 6 weeks)
  CFU/ml: 38000 CFU/ml and 860000 CFU/ml and 9200000 CFU/ml and 3340000 CFU/ml and 4100000 CFU/ml and 2340000 CFU/ml and 68000 CFU/ml and 304000 CFU/ml and 270000000 CFU/ml and 3980000 CFU/ml and 234000 CFU/ml and 64000 CFU/ml and 21800 CFU/ml and 62000 CFU/ml
[1]; Fig. 4C, 10 weeks (pre-treatment 6 weeks)
  CFU/ml: 338000 CFU/ml and 29000 CFU/ml and 2660 CFU/ml and 228000 CFU/ml and 188000 CFU/ml and 43000000 CFU/ml and 112000 CFU/ml and 17800000 CFU/ml and 926000 CFU/ml and 42800000 CFU/ml and 132000 CFU/ml and 118000 CFU/ml and 720000 CFU/ml
[2]; 10 μM, OD600 over 12 days
  Inhibition of Mtb growth in cholesterol media: inhibited Mtb growth
[2]; day 3, average
  OD600: 0.06
[2]; day 3, individual replicates
  OD600: 0.06
[2]; day 6, average
  OD600: 0.09333
[2]; day 6, individual replicates
  OD600: 0.1 (2×) and 0.08
[2]; day 9, average
  OD600: 0.12
[2]; day 9, individual replicates
  OD600: 0.12 and 0.1 and 0.14
[2]; day 12, average
  OD600: 0.1533
[2]; day 12, individual replicates
  OD600: 0.14 (2×) and 0.18
[3]; 10 μM, uninfected BMDMs
  Effect on increase in [Cl−] during macrophage phagosomal maturation: no significant effect
[3]; Time 0 minutes
  AF594/BAC fluorescence, Average: 0.6122
  AF594/BAC fluorescence, replicates: 0.5839 and 0.6162 and 0.6235 and 0.6146 and 0.6227
[3]; Time 1 minutes
  AF594/BAC fluorescence, Average: 0.5459
  AF594/BAC fluorescence, replicates: 0.5421 and 0.5573 (2×) and 0.546 and 0.5266
[3]; Time 2 minutes
  AF594/BAC fluorescence, Average: 0.5408
  AF594/BAC fluorescence, replicates: 0.5319 and 0.5419 and 0.5358 and 0.5431 and 0.5513
[3]; Time 3 minutes
  AF594/BAC fluorescence, Average: 0.5344
  AF594/BAC fluorescence, replicates: 0.5344 and 0.5364 and 0.543 and 0.5118 and 0.5462
[3]; Time 4 minutes
  AF594/BAC fluorescence, Average: 0.5424
  AF594/BAC fluorescence, replicates: 0.5625 and 0.5432 and 0.5412 and 0.5272 and 0.538
[3]; Time 5 minutes
  AF594/BAC fluorescence, Average: 0.5329
  AF594/BAC fluorescence, replicates: 0.545 and 0.5366 and 0.532 and 0.5179 and 0.5328
[3]; Time 7 minutes
  AF594/BAC fluorescence, Average: 0.5364
  AF594/BAC fluorescence, replicates: 0.548 and 0.5294 and 0.5467 and 0.5183 and 0.5395
[3]; Time 9 minutes
  AF594/BAC fluorescence, Average: 0.5382
  AF594/BAC fluorescence, replicates: 0.5413 and 0.5472 and 0.5302 and 0.5353 and 0.5369
[3]; Time 11 minutes
  AF594/BAC fluorescence, Average: 0.548
  AF594/BAC fluorescence, replicates: 0.555 and 0.5414 and 0.5741 and 0.5202 and 0.5492
[3]; Time 13 minutes
  AF594/BAC fluorescence, Average: 0.5691
  AF594/BAC fluorescence, replicates: 0.5666 and 0.5688 and 0.5877 and 0.5543 and 0.5682
[3]; Time 15 minutes
  AF594/BAC fluorescence, Average: 0.5821
  AF594/BAC fluorescence, replicates: 0.5799 and 0.5786 and 0.5955 and 0.5676 and 0.5889
[3]; Time 17 minutes
  AF594/BAC fluorescence, Average: 0.5935
  AF594/BAC fluorescence, replicates: 0.5853 and 0.6046 and 0.6099 and 0.5629 and 0.6045
[3]; Time 19 minutes
  AF594/BAC fluorescence, Average: 0.603
  AF594/BAC fluorescence, replicates: 0.5752 and 0.6161 and 0.6348 and 0.5964
[3]; Time 21 minutes
  AF594/BAC fluorescence, Average: 0.6193
[3]; Time 23 minutes
  AF594/BAC fluorescence, Average: 0.618
[3]; Time 25 minutes
  AF594/BAC fluorescence, Average: 0.6229
[3]; Time 27 minutes
  AF594/BAC fluorescence, Average: 0.6239
[3]; Time 29 minutes
  AF594/BAC fluorescence, Average: 0.6453
[3]; Time 31 minutes
  AF594/BAC fluorescence, Average: 0.6313
[3]; Time 33 minutes
  AF594/BAC fluorescence, Average: 0.6482
[3]; Time 35 minutes
  AF594/BAC fluorescence, Average: 0.6392
[3]; Time 37 minutes
  AF594/BAC fluorescence, Average: 0.6481
[3]; Time 39 minutes
  AF594/BAC fluorescence, Average: 0.6418
[3]; Time 41 minutes
  AF594/BAC fluorescence, Average: 0.6532
[3]; Time 43 minutes
  AF594/BAC fluorescence, Average: 0.6524
[3]; Time 45 minutes
  AF594/BAC fluorescence, Average: 0.6458
[3]; Time 46 minutes
  AF594/BAC fluorescence, Average: 0.6438
[3]; Time 47 minutes
  AF594/BAC fluorescence, Average: 0.6518
[3]; Time 48 minutes
  AF594/BAC fluorescence, Average: 0.6423
[3]; Time 49 minutes
  AF594/BAC fluorescence, Average: 0.6502
[3]; Time 50 minutes
  AF594/BAC fluorescence, Average: 0.6427
[3]; Time 51 minutes
  AF594/BAC fluorescence, Average: 0.6412
[3]; Time 52 minutes
  AF594/BAC fluorescence, Average: 0.6437
[3]; Time 53 minutes
  AF594/BAC fluorescence, Average: 0.6415
[3]; Time 54 minutes
  AF594/BAC fluorescence, Average: 0.6535
[3]; Time 55 minutes
  AF594/BAC fluorescence, Average: 0.646
[3]; Time 56 minutes
  AF594/BAC fluorescence, Average: 0.6496
[3]; Time 57 minutes
  AF594/BAC fluorescence, Average: 0.6559
[3]; Time 58 minutes
  AF594/BAC fluorescence, Average: 0.6523
[3]; Time 59 minutes
  AF594/BAC fluorescence, Average: 0.6473
[3]; Time 60 minutes
  AF594/BAC fluorescence, Average: 0.6412
[3]; Time 61 minutes
  AF594/BAC fluorescence, Average: 0.6401
[3]; Time 62 minutes
  AF594/BAC fluorescence, Average: 0.6424
[3]; Time 63 minutes
  AF594/BAC fluorescence, Average: 0.6429
[3]; Time 64 minutes
  AF594/BAC fluorescence, Average: 0.6497
[3]; Time 65 minutes
  AF594/BAC fluorescence, Average: 0.6542
[3]; Time 66 minutes
  AF594/BAC fluorescence, Average: 0.6415
[3]; Time 67 minutes
  AF594/BAC fluorescence, Average: 0.656
[3]; time 6 minutes
  AF594/BAC fluorescence, Average: 0.5344
  AF594/BAC fluorescence, replicates: 0.55 and 0.5263 and 0.5408 and 0.5119 and 0.5432
[3]; time 8 minutes
  AF594/BAC fluorescence, Average: 0.5381
  AF594/BAC fluorescence, replicates: 0.5319 and 0.5466 and 0.5386 and 0.538 and 0.5353
[3]; time 10 minutes
  AF594/BAC fluorescence, Average: 0.5471
  AF594/BAC fluorescence, replicates: 0.5453 and 0.5491 and 0.5758 and 0.5298 and 0.5354
[3]; time 12 minutes
  AF594/BAC fluorescence, Average: 0.5563
  AF594/BAC fluorescence, replicates: 0.5501 and 0.57 and 0.5742 and 0.5198 and 0.5673
[3]; time 14 minutes
  AF594/BAC fluorescence, Average: 0.5706
  AF594/BAC fluorescence, replicates: 0.5628 and 0.5864 and 0.5841 and 0.542 and 0.5776
[3]; time 16 minutes
  AF594/BAC fluorescence, Average: 0.5854
  AF594/BAC fluorescence, replicates: 0.5806 and 0.5704 and 0.6264 and 0.5665 and 0.5832
[3]; time 18 minutes
  AF594/BAC fluorescence, Average: 0.5961
  AF594/BAC fluorescence, replicates: 0.5808 and 0.5961 and 0.6277 and 0.5767 and 0.5992
[3]; time 20 minutes
  AF594/BAC fluorescence, Average: 0.6147
  AF594/BAC fluorescence, replicates: 0.6043
[3]; time 22 minutes
  AF594/BAC fluorescence, Average: 0.6194
[3]; time 24 minutes
  AF594/BAC fluorescence, Average: 0.6332
[3]; time 26 minutes
  AF594/BAC fluorescence, Average: 0.631
[3]; time 28 minutes
  AF594/BAC fluorescence, Average: 0.638
[3]; time 30 minutes
  AF594/BAC fluorescence, Average: 0.6338
[3]; time 32 minutes
  AF594/BAC fluorescence, Average: 0.6382
[3]; time 34 minutes
  AF594/BAC fluorescence, Average: 0.6489
[3]; time 36 minutes
  AF594/BAC fluorescence, Average: 0.6508
[3]; time 38 minutes
  AF594/BAC fluorescence, Average: 0.652
[3]; time 40 minutes
  AF594/BAC fluorescence, Average: 0.6508
[3]; time 42 minutes
  AF594/BAC fluorescence, Average: 0.6499
[3]; time 44 minutes
  AF594/BAC fluorescence, Average: 0.6458
[4]
  half-life: 37.6 min
